This series is described as follows: Solubility of Compound I in various vehicles (high throughput screening, HPLC assay of solution phase). Format: physicochemical. As to the method:
Solubility of Compound 1 was determined using a high throughput screening method.
The above solubilities were determined by adding Compound I to the test system and stirred. Following an equilibrium time, the material in the solution phase is assayed by HPLC to determine solubility.

In brackets after ≈: the same amount, converted by molar mass. Where two headings read alike, the source gives them in different places.

By solubility is commonly meant how much of the substance goes into solution per volume. Regarding `CC(C)(F)[C@H](c1cc(F)cc(C#N)c1)C1CN([C@@H](c2ccc(Cl)cc2)c2cccc(-c3n[nH]c(=O)o3)c2)C1` [Compound I, 3-[(1S)-1-(1-{(S)-(4-chlorophenyl)[3-(5-oxo-4,5-dihydro-1,3,4-oxadiazol-2-yl)phenyl]methyl}azetidin-3-yl)-2-fluoro-2-methylpropyl]-5-fluorobenzonitrile], the solubility reads like this: (aqueous with cosolvent or surfactant or cyclodextrin, thermodynamic from solid, vehicle CREMOPHOR EL (aqueous solution), free base, read-out: Solubility in vehicle at ambient temperature) less than 40 µg/mL; (aqueous with cosolvent or surfactant or cyclodextrin, thermodynamic from solid, vehicle Methyl Cellulose (aqueous solution), free base, read-out: Solubility in vehicle at ambient temperature) less than 40 µg/mL; (aqueous with cosolvent or surfactant or cyclodextrin, thermodynamic from solid, vehicle Methyl Cellulose with SDS (aqueous solution), free base, read-out: Solubility in vehicle at ambient temperature) less than 40 µg/mL; (aqueous with cosolvent or surfactant or cyclodextrin, thermodynamic from solid, vehicle POLYSORBATE 80 (aqueous solution), free base, read-out: Solubility in vehicle at ambient temperature) less than 40 µg/mL; (aqueous with cosolvent or surfactant or cyclodextrin, thermodynamic from solid, vehicle Sodium lauryl sulfate (aqueous solution), free base, read-out: Solubility in vehicle at ambient temperature) less than 40 µg/mL; (aqueous with cosolvent or surfactant or cyclodextrin, thermodynamic from solid, vehicle Vitamin E TPGS (aqueous solution), free base, read-out: Solubility in vehicle at ambient temperature) less than 40 µg/mL. Further, the solubility (fassgf or other biorelevant, thermodynamic from solid, vehicle Simulated gastric fluids (fasted and fed), free base, read-out: Solubility in vehicle at ambient temperature) is less than 40 µg/mL; the solubility (water, statement in description, read-out: solubility in water) came to 1 µg/mL (≈ 1.87 µM). The “Solubility in vehicle at ambient temperature” value runs as follows: (vehicle 0.01N HCl/34 mMNaCl, free base) 0.007 mg/g; (vehicle IMWITOR 742, free base) 318 mg/g; (vehicle IMWITOR:TWEEN (1:1), free base) more than 240 mg/g; (vehicle MIGLYOL 812, free base) 86 mg/g; (vehicle Water, free base) 0.001 mg/g.

The record behind these values is patent US20100081642A1, “CB-1 RECEPTOR MODULATOR PHARMACEUTICAL FORMULATIONS” (priority 2008, published 2010).
